Patent US9023318B2, “Compounds with matrix-metalloproteinase inhibitory activity and imaging agents thereof” (Siemens Medical Solutions USA, Inc., priority 2011, dated 2015)

What was measured:
recombinant MMP-13 = recombinant MMP-13 (Homo sapiens, UniProt P45452); assay: MMP compound screening, recombinant MMP-13 (SensoLyte 390 Generic MMP Activity Kit); type: biochemical; settings: read-out: inhibition of MMP-13 activity, % of total activity; for inhibition at 0.01 µM: 10 nM compound; for inhibition at 0.1 µM: 100 nM (0.1 uM) compound
Method: (§1) The activities were determined using Fluorimetric SensoLyte® 390 Generic MMP Activity Kit from Anaspec (cat #72202). This assay kit can detect the activity of several MMPs such as MMP-1, 2, 7, 8, 9, 13, 14, 15, 16 and 24.
(§2) For screening MMP compounds, activated 2 nM of recombinant MMP-2, 8, 9 or 13 are pre-incubated with MMP compound (inhibitor) for 30 min at 37° C. The substrate is added and the inhibition of MMP activity is expressed as % of total activity (without the inhibitor incubation).

recombinant MMP-2 = biological target: T1, recombinant MMP-2 (Homo sapiens, UniProt P08253); assay: MMP compound screening, recombinant MMP-2 (SensoLyte 390 Generic MMP Activity Kit); type: biochemical; settings: for inhibition at 0.01 µM: 10 nM compound; for IC50: 2 nM enzyme, 30 min pre-incubation at 37° C.
T1 sequence (P08253 110-660): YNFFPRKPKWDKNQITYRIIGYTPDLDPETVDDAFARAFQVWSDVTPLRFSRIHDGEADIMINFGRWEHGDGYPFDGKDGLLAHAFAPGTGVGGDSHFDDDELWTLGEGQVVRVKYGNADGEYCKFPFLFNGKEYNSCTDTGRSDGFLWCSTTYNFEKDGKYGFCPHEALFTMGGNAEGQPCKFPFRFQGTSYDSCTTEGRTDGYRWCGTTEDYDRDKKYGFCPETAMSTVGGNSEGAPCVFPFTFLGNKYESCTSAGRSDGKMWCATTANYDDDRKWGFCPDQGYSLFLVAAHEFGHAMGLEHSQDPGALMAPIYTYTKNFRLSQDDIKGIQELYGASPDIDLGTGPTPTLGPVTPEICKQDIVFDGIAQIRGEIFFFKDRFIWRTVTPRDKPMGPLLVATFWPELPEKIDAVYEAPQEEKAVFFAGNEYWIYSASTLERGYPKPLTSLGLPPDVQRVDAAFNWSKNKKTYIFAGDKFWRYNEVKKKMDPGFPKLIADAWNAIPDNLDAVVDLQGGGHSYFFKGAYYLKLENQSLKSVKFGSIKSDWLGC
Method: as §1, §2

recombinant MMP-9 = recombinant MMP-9 (Homo sapiens, UniProt P14780); assay: MMP compound screening, recombinant MMP-9 (SensoLyte 390 Generic MMP Activity Kit); type: biochemical; settings: for inhibition at 0.01 µM: 10 nM compound
Sequence of recombinant MMP-9 (P14780 107-707 limits assumed, species assumed): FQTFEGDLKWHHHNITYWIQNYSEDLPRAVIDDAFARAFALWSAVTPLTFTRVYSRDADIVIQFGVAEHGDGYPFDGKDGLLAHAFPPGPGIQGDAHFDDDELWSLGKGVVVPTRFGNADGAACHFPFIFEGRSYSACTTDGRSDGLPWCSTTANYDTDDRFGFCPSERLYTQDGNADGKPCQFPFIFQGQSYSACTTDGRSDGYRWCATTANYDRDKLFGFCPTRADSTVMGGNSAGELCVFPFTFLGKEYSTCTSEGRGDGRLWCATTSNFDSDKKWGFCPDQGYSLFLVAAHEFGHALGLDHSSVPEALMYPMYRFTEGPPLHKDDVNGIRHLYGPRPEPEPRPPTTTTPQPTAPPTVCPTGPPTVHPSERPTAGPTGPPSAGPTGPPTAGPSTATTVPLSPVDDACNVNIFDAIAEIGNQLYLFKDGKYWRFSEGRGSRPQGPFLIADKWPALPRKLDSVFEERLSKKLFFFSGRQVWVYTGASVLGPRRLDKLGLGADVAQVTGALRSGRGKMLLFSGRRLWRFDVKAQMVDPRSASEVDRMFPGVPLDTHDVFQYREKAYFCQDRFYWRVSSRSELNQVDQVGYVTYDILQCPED
Method: as §1, §2

recombinant MMP-8 = recombinant MMP-8 (Homo sapiens, UniProt P22894); assay: MMP compound screening, recombinant MMP-8 (SensoLyte 390 Generic MMP Activity Kit); type: biochemical; settings: read-out: inhibition of MMP-8 activity, % of total activity; for inhibition at 0.01 µM: 10 nM compound; for inhibition at 0.1 µM: 100 nM (0.1 uM) compound
Sequence of recombinant MMP-8 (P22894 101-467, species assumed): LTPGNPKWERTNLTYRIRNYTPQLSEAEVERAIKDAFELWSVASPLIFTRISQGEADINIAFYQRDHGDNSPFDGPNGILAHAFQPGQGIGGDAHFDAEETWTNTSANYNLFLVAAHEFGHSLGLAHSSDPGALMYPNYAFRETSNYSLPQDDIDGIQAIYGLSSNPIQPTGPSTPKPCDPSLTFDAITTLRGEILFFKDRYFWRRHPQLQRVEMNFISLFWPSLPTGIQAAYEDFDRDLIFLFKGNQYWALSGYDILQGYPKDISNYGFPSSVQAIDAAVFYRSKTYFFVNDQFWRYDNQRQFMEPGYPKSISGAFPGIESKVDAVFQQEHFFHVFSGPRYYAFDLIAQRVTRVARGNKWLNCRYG
Method: as §1, §2

[1] = Biodistribution of M005: tumor and tissue fluorescence scans; type: in vivo, mouse; settings: 4 h uptake time, Cy5 channel
Method: FIGS. 3-5 are mouse scans before and 4 hours after […] injection.

MMP = MMP inhibition, general statement; type: biochemical
Method: as §1, §2

[2] = read-out: inhibition of MMP-2 activity, % of total activity
[3] = read-out: inhibition of MMP-9 activity, % of total activity

inhibition at 0.01 µM (recombinant MMP-13) | inhibition at 0.01 µM (recombinant MMP-2; [2]) | inhibition at 0.01 µM (recombinant MMP-9; [3]) | inhibition at 0.01 µM (recombinant MMP-8) | inhibition at 0.1 µM (recombinant MMP-13) | IC50 (recombinant MMP-2) | inhibition at 0.1 µM (recombinant MMP-8) | SMILES | also measured
10% | 28% | 2% | 13% | – | – | – | COc1ccc(S(=O)(=O)N(Cc2cn(CCOCCOCCOCCNC(=O)CCC(NC(=O)Cn3cc(CCCF)nn3)C(=O)NCCOCCOCCOCCn3cc(CN([C@@H](C(=O)NOC(C)(C)C)C(C)C)S(=O)(=O)c4ccc(OC)cc4)nn3)nn2)[C@@H](C(=O)NO)C(C)C)cc1 (some centres unmarked) [M010] | –
– | – | – | – | 91% | 25 nM | 83% | COc1ccc(S(=O)(=O)N(Cc2cn(CCOCCOCCOCCNC(=O)CCCCC[N+]3=C(/C=C/C=C/C=C4\N(C)c5ccc6ccccc6c5C4(C)C)C(C)(C)c4c3ccc3ccccc43)nn2)[C@@H](C(=O)NO)C(C)C)cc1 [M004] | –
75% | 50% | 55% | 57% | – | – | – | COc1ccc(S(=O)(=O)N(Cc2cn(CCOCCNC(=O)c3cc(C(=O)NCCOCCn4cc(CN([C@@H](C(=O)NO)C(C)C)S(=O)(=O)c5ccc(OC)cc5)nn4)cc(-n4cc(CCCF)nn4)c3)nn2)[C@H](C(=O)NO)C(C)C)cc1 [M011] | –
64% | 59% | – | 46% | – | – | – | COc1ccc(S(=O)(=O)N(Cc2cn(CCOCCOCCOCCNC(=O)CCC(NC(=O)Cn3cc(CCCF)nn3)C(=O)NCCOCCOCCOCCn3cc(CN([C@@H](C(=O)NO)C(C)C)S(=O)(=O)c4ccc(OC)cc4)nn3)nn2)[C@@H](C(=O)NO)C(C)C)cc1 (some centres unmarked) [M009] | inhibition of MMP-9 activity, % of total activity (recombinant MMP-9; concentration not given): 48%
– | – | – | – | 97% | 5.2 nM | 97% | CCN1\C(=C/C=C/C=C/C2=[N+](CCCCCC(=O)NCCOCCOCCOCCn3cc(CN([C@@H](C(=O)NO)C(C)C)S(=O)(=O)c4ccc(OC)cc4)nn3)c3ccc4c(S(=O)(=O)O)cc(S(=O)(=O)[O-])cc4c3C2(C)C)C(C)(C)c2c1ccc1c(S(=O)(=O)O)cc(S(=O)(=O)O)cc21 [M003] | –
– | – | – | – | – | 2 nM | – | CCN1C(=CC=CC=CC2=[N+](CCCCCC(=O)NCCCCC(NC(=O)Cn3cc(CCCF)nn3)C(=O)NCCOCCOCCOCCn3cc(CN(C(C(=O)NO)C(C)C)S(=O)(=O)c4ccc(OC)cc4)nn3)c3ccc4c(S(=O)(=O)O)cc(S(=O)(=O)[O-])cc4c3C2(C)C)C(C)(C)c2c1ccc1c(S(=O)(=O)O)cc(S(=O)(=O)O)cc21 (centres unmarked) [M005] | uptake in tumor and tissue (fluorescence) ([1]; with and without tracer injection): uptake above background fluorescence of tissue; uptake into the brain ([1]; brain used as background tissue): no uptake of the tracer into the brain; IC50 (recombinant MMP-9; 2 nM enzyme, 30 min pre-incubation at 37° C.): 2.1 nM
82% | 82% | 78% | 95% | – | – | – | COc1ccc(S(=O)(=O)N(Cc2cn(CCOCCn3cc(CCCF)nn3)nn2)[C@@H](C(=O)NO)C(C)C)cc1 [M008] | –
79% | 66% | 67% | 84% | – | – | – | COc1ccc(S(=O)(=O)N(Cc2cn(CCOCCNC(=O)c3cc(C(=O)O)cc(-n4cc(CCCF)nn4)c3)nn2)[C@@H](C(=O)NO)C(C)C)cc1 [M013] | –
– | – | – | – | 99% | – | 92% | COc1ccc(-c2cn(CCN([C@@H](C(=O)NO)C(C)C)S(=O)(=O)c3ccc(OC)cc3)nn2)cc1 [M001] | –
96% | 64% | 89% | 94% | 99% | – | 100% | COc1ccc(S(=O)(=O)N(Cc2cn(CCOCCn3cc(CN([C@@H](C(=O)NO)C(C)C)S(=O)(=O)c4ccc(OC)cc4)nn3)nn2)[C@H](C(=O)NO)C(C)C)cc1 [M007] | inhibition at 0.1 µM (recombinant MMP-2; 100 nM (0.1 uM) compound, read-out: inhibition of MMP-2 activity, % of total activity): 95%; inhibition at 0.1 µM (recombinant MMP-9; 100 nM (0.1 uM) compound, read-out: inhibition of MMP-9 activity, % of total activity): 100%; MMP inhibition (in words) (MMP): good MMP inhibition
